Columns and labels:
Format in all cases: in vivo
[1] = tested on: ryegrass, Italian (Italian ryegrass, Lolium multiflorum); assay: Test A preemergence; settings: Lolium multiflorum, pre-emergence, 240 h, preemergence, 0 to 100 scale where 0 is no effect and 100 is complete control, read-out: Ryegrass, Italian plant response rating; for pest or weed control at 125 g/ha: 125 g ai/ha, approx. 10 d; for pest or weed control at 500 g/ha: 500 g ai/ha
How it was run: (§1)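 Visual injury scores from 0, no effect, to 100, complete control, were assigned versus untreated controls roughly 10 d after treatment in the greenhouse. Test chemicals, formulated with surfactant in a non-phytotoxic solvent, were applied to planted seeds as a preemergence soil spray or postemergence to one- to two-leaf plants 2 to 10 cm tall, in loam–sand soil.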

[2] = tested on: blackgrass (Alopecurus myosuroides); assay: Test A postemergence; settings: Alopecurus myosuroides, post-emergence, 240 h, postemergence, read-out: Blackgrass plant response rating; for pest or weed control at 125 g/ha: 125 g ai/ha, visual injury on 0 to 100 scale (0 no effect, 100 complete control), approx. 10 d; for pest or weed control at 500 g/ha: 500 g ai/ha, 0 to 100 scale, 0 is no effect, 100 is complete control
How it was run: as §1

[3] = tested on: giant foxtail (Setaria faberii); assay: Test A postemergence; settings: Setaria faberi, post-emergence, 240 h, postemergence, read-out: Foxtail, Giant plant response rating; for pest or weed control at 125 g/ha: 125 g ai/ha, visual injury on 0 to 100 scale (0 no effect, 100 complete control), approx. 10 d; for pest or weed control at 500 g/ha: 500 g ai/ha, 0 to 100 scale, 0 is no effect, 100 is complete control
How it was run: as §1

[4] = tested on: pigweed (Amaranthus retroflexus); assay: Test A postemergence; settings: Amaranthus retroflexus, post-emergence, 240 h, postemergence, read-out: Pigweed plant response rating; for pest or weed control at 125 g/ha: 125 g ai/ha, visual injury on 0 to 100 scale (0 no effect, 100 complete control), approx. 10 d; for pest or weed control at 500 g/ha: 500 g ai/ha, 0 to 100 scale, 0 is no effect, 100 is complete control
How it was run: as §1

[5] = tested on: corn (Zea mays); assay: Test A postemergence; settings: Zea mays, post-emergence, 240 h, postemergence, read-out: Corn plant response rating; for plant injury at 125 g/ha: 125 g ai/ha, visual injury on 0 to 100 scale (0 no effect, 100 complete control), approx. 10 d; for plant injury at 500 g/ha: 500 g ai/ha, 0 to 100 scale, 0 is no effect, 100 is complete control
How it was run: as §1

[6] = tested on: ragweed (common ragweed, Ambrosia elatior); assay: Test A postemergence; settings: Ambrosia artemisiifolia, post-emergence, 240 h, postemergence, read-out: Ragweed plant response rating; for pest or weed control at 125 g/ha: 125 g ai/ha, visual injury on 0 to 100 scale (0 no effect, 100 complete control), approx. 10 d; for pest or weed control at 500 g/ha: 500 g ai/ha, 0 to 100 scale, 0 is no effect, 100 is complete control
How it was run: as §1

[7] = tested on: ryegrass, Italian (Italian ryegrass, Lolium multiflorum); assay: Test A postemergence; settings: Lolium multiflorum, post-emergence, 240 h, postemergence, read-out: Ryegrass, Italian plant response rating; for pest or weed control at 125 g/ha: 125 g ai/ha, visual injury on 0 to 100 scale (0 no effect, 100 complete control), approx. 10 d; for pest or weed control at 500 g/ha: 500 g ai/ha, 0 to 100 scale, 0 is no effect, 100 is complete control
How it was run: as §1

[8] = tested on: wheat (Triticum aestivum); assay: Test A postemergence; settings: Triticum aestivum, post-emergence, 240 h, postemergence, read-out: Wheat plant response rating; for plant injury at 125 g/ha: 125 g ai/ha, visual injury on 0 to 100 scale (0 no effect, 100 complete control), approx. 10 d; for plant injury at 500 g/ha: 500 g ai/ha, 0 to 100 scale, 0 is no effect, 100 is complete control
How it was run: as §1

[9] = tested on: Kochia (Kochia scoparia); assay: Test A postemergence; settings: Bassia scoparia, post-emergence, 240 h, postemergence, read-out: Kochia plant response rating; for pest or weed control at 125 g/ha: 125 g ai/ha, visual injury on 0 to 100 scale (0 no effect, 100 complete control), approx. 10 d; for pest or weed control at 500 g/ha: 500 g ai/ha, 0 to 100 scale, 0 is no effect, 100 is complete control
How it was run: as §1

[10] = tested on: barnyardgrass (Echinochloa crus-galli); assay: Test A postemergence; settings: Echinochloa crus-galli, post-emergence, 240 h, postemergence, read-out: Barnyardgrass plant response rating; for pest or weed control at 125 g/ha: 125 g ai/ha, visual injury on 0 to 100 scale (0 no effect, 100 complete control), approx. 10 d; for pest or weed control at 500 g/ha: 500 g ai/ha, 0 to 100 scale, 0 is no effect, 100 is complete control
How it was run: as §1

[11] = tested on: Galium (catchweed bedstraw, Galium aparine); assay: Test A postemergence; settings: Galium, post-emergence, 240 h, postemergence, read-out: Galium plant response rating; for pest or weed control at 125 g/ha: 125 g ai/ha, visual injury on 0 to 100 scale (0 no effect, 100 complete control), approx. 10 d; for pest or weed control at 500 g/ha: 500 g ai/ha, 0 to 100 scale, 0 is no effect, 100 is complete control
How it was run: as §1

[12] = tested on: rice (Oryra sativa); assay: Test B flooded paddy test; settings: Oryza sativa, 250 g ai/ha, Flood; 0 to 100 scale where 0 is no effect and 100 is complete control; read-out: Rice plant response rating
How it was run: (§2)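 Visual ratings (0 none to 100 complete control) are relative to untreated plants, taken 13–15 d after treatment in a greenhouse. Test material went straight into floodwater standing 3 cm above the soil, kept constant, on plants at the 2-leaf stage.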

[13] = tested on: sedge, umbrella (small-flower umbrella sedge, Cyperus difformis); assay: Test B flooded paddy test; settings: Cyperus difformis, 250 g ai/ha, Flood; 0 to 100 scale where 0 is no effect and 100 is complete control; read-out: Sedge, Umbrella plant response rating
How it was run: as §2

[14] = tested on: ducksalad (Heteranthera limosa); assay: Test B flooded paddy test; settings: Heteranthera limosa, 250 g ai/ha, Flood; 0 to 100 scale where 0 is no effect and 100 is complete control; read-out: Ducksalad plant response rating
How it was run: as §2

[15] = tested on: barnyardgrass (Echinochloa crus-galli); assay: Test B flooded paddy test; settings: Echinochloa crus-galli, 250 g ai/ha, Flood; 0 to 100 scale where 0 is no effect and 100 is complete control; read-out: Barnyardgrass plant response rating
How it was run: as §2

CN1C[C@H](c2ccc3c(c2)OCO3)[C@@H](C(=O)Nc2cccc(F)c2F)C1=O [Compound 1126]
pest or weed control at 125 g/ha [1]: 0%
pest or weed control at 500 g/ha [1]: 70%
pest or weed control at 125 g/ha [2]: 20%
pest or weed control at 500 g/ha [2]: 40%
pest or weed control at 125 g/ha [3]: 80%
pest or weed control at 500 g/ha [3]: 90%
pest or weed control at 125 g/ha [4]: 0%
pest or weed control at 500 g/ha [4]: 30%
plant injury at 125 g/ha [5]: 60%
plant injury at 500 g/ha [5]: 90%
pest or weed control at 125 g/ha [6]: 40%
pest or weed control at 500 g/ha [6]: 40%
pest or weed control at 125 g/ha [7]: 30%
pest or weed control at 500 g/ha [7]: 50%
plant injury at 125 g/ha [8]: 50%
plant injury at 500 g/ha [8]: 70%
pest or weed control at 125 g/ha [9]: 50%
pest or weed control at 500 g/ha [9]: 70%
pest or weed control at 125 g/ha [10]: 90%
pest or weed control at 500 g/ha [10]: 90%
pest or weed control at 125 g/ha [11]: 50%
pest or weed control at 500 g/ha [11]: 40%
pest or weed control at 250 g/ha [12]: 0%
pest or weed control at 250 g/ha [13]: 0%
pest or weed control at 250 g/ha [14]: 100%
pest or weed control at 250 g/ha [15]: 75%

O=C1NC[C@H](c2ccc3c(c2)OCO3)[C@H]1C(=O)Nc1cccc(F)c1C(F)(F)F [Compound 1127]
pest or weed control at 125 g/ha [1]: 0%
pest or weed control at 500 g/ha [1]: 0%
pest or weed control at 125 g/ha [2]: 0%
pest or weed control at 500 g/ha [2]: 20%
pest or weed control at 125 g/ha [3]: 0%
pest or weed control at 500 g/ha [3]: 50%
pest or weed control at 125 g/ha [4]: 0%
pest or weed control at 500 g/ha [4]: 0%
plant injury at 125 g/ha [5]: 0%
plant injury at 500 g/ha [5]: 0%
pest or weed control at 125 g/ha [6]: 0%
pest or weed control at 500 g/ha [6]: 0%
pest or weed control at 125 g/ha [7]: 0%
pest or weed control at 500 g/ha [7]: 0%
plant injury at 125 g/ha [8]: 0%
plant injury at 500 g/ha [8]: 0%
pest or weed control at 125 g/ha [9]: 0%
pest or weed control at 500 g/ha [9]: 0%
pest or weed control at 125 g/ha [10]: 0%
pest or weed control at 500 g/ha [10]: 40%
pest or weed control at 125 g/ha [11]: 0%
pest or weed control at 500 g/ha [11]: 40%
pest or weed control at 250 g/ha [12]: 0%
pest or weed control at 250 g/ha [13]: 0%
pest or weed control at 250 g/ha [14]: 100%
pest or weed control at 250 g/ha [15]: 0%

O=C1NC[C@H](c2ccc(F)c(OC(F)(F)C(F)F)c2)[C@H]1C(=O)Nc1cccc(F)c1F [Compound 1131]
pest or weed control at 125 g/ha [1]: 0%
pest or weed control at 500 g/ha [1]: 70%
pest or weed control at 125 g/ha [2]: 40%
pest or weed control at 500 g/ha [2]: 60%
pest or weed control at 125 g/ha [3]: 80%
pest or weed control at 500 g/ha [3]: 90%
pest or weed control at 125 g/ha [4]: 50%
pest or weed control at 500 g/ha [4]: 80%
plant injury at 125 g/ha [5]: 70%
plant injury at 500 g/ha [5]: 80%
pest or weed control at 125 g/ha [6]: 50%
pest or weed control at 500 g/ha [6]: 80%
pest or weed control at 125 g/ha [7]: 0%
pest or weed control at 500 g/ha [7]: 50%
plant injury at 125 g/ha [8]: 50%
plant injury at 500 g/ha [8]: 70%
pest or weed control at 125 g/ha [9]: 60%
pest or weed control at 500 g/ha [9]: 70%
pest or weed control at 125 g/ha [10]: 70%
pest or weed control at 500 g/ha [10]: 90%
pest or weed control at 125 g/ha [11]: 60%
pest or weed control at 500 g/ha [11]: 60%
pest or weed control at 250 g/ha [12]: 30%
pest or weed control at 250 g/ha [13]: 0%
pest or weed control at 250 g/ha [14]: 70%
pest or weed control at 250 g/ha [15]: 60%
